{"source": "patent US8455397B2", "about": "“Penoxsulam as a turfgrass, vineyard and orchard floor herbicide” (Dow AgroSciences, LLC, priority 2005, dated 2013)", "key": {"[1]": {"tested_on": "Hydrocotyle species (HYDSS)", "assay": "Post emergent synergy field study, penoxsulam + dicamba granule", "format": "in vivo", "settings": "average of 2 studies 4 weeks after application", "protocol": "(§1) Field and greenhouse studies were conducted to determine if there may be any synergistic response when penoxsulam is combined with other herbicides for post emergence broadleaf or sedge control. Field studies were conducted in established turfgrass sites containing a natural population of target broadleaf weeds. Replicated trials, containing a minimum of three replications and having individual plots ranging in size from 25 to 50 ft. sq (2.3 to 4.6 square meters), were initiated in the late spring when turf and weeds were actively growing. Granule treatments were uniformly applied to individual plots using a common hand-shaker method. Applications were made in the early morning when dew was present. Natural rainfall and supplemental irrigation were used to maintain healthy turf and active weed growth throughout the study period. Control of each weed species in the study site was made at 2, 4 and 8 weeks after treatment. Control was determined visually by comparing treated and untreated weeds and scored on a 0 to 100 percent scale where 0 corresponds to no control and 100 corresponds to complete kill.\nComponent A was penoxsulam at 0.02 or 0.04 lb ai/A. Component B was dicamba at 0.1 lb ai/A. Individual products and mixture were applied on a 30-3-4 granule fertilizer formulated to deliver 116 pounds fertilizer per acre (129 kg per hectare). Loadings for the individual component on the fertilizer were: • Penoxsulam 22.4 gai/Ha (0.02 lb ai/A)=0.017% • Penoxsulam 44.9 gai/Ha (0.04 lb ai/A)=0.034% • Dicamba 112 gae/Ha (0.1 lb ai/A)=0.086%\nFor combinations the same loadings were applied to the same granule carrier and applied as a single product to test area."}, "common mallow (MALNE)": {"tested_on": "common mallow (MALNE)", "assay": "Pre-emergence orchard floor weeds, greenhouse study", "format": "in vivo, Malva neglecta", "settings": "28 Days After Application", "protocol": "(§2) Greenhouse studies were conducted by seeding species in a loam soil and applying the herbicides to the soil surface using a Cornwall 5 milliliter glass syringe fitted with a TeeJet TN-3 nozzle on an area basis Immediately following herbicide application the pots were irrigated over the top to move the herbicides into the seeding zone. Pots were kept well irrigated throughout the trial. A percent visual weed control assessment was taken 4 weeks after application. Control was determined visually by comparing treated and untreated pots and scored on a 0 to 100 percent scale where 0 corresponds to no control and 100 corresponds to complete kill, or no emergence."}, "common groundsel (SENVU)": {"tested_on": "common groundsel (SENVU)", "assay": "Pre-emergence orchard floor weeds, greenhouse study", "format": "in vivo, Senecio vulgaris", "settings": "28 Days After Application", "protocol": "as §2"}, "yellow nutsedge (CYPES)": {"tested_on": "yellow nutsedge (CYPES)", "assay": "Granule carrier comparison, pre-emergence greenhouse study", "format": "in vivo, Cypres esculentus L.", "settings": "pre-emergent greenhouse", "protocol": "(§3) Greenhouse and field studies evaluated the effect of two granule carriers and two particles sizes on the postemergent broadleaf activity of penoxsulam. The two carriers were a 46-0-0 and 28-4-12 fertilizer blend and the particle sizes averaged 0.75 mm and 2.15 mm.\n(§4) Greenhouse studies were applied both post and pre-emergence to broadleaf weeds and sedge reared from seed or nutlet in 12.7″ (32.25 cm) by 8.8″ (22.35 cm) flats of a loam soil. Particle size and carrier were evaluated post emergence, carrier comparisons with the smaller particle size of 0.75 was evaluated pre-emergence. Stage of growth of species at post emergence application: PLAMA and TAROF in the 3 to 5 leaf stage, TRFRE in the 3rd tri-foliate stage and CYPES in the 3 to 4 leaf stage. Post emergence trial design was a replicated block, one species per flat, 3 replicate flats per treatment. Granule treatments were uniformly applied to individual flats on an area basis using a common hand-shaker method. Post emergence applications were made to the flat covering both soil and misted foliage. Trial was sub-irrigated daily, and watered over the top 1 time per week starting 7 days after application to simulate a natural rainfall event. Active weed growth was maintained throughout the study period. Weed control of each species in the post emergence study was assessed at 2, 3 and 4 weeks after treatment. Pre-emergence trial design was 2 species per flat, 4 replicate flats, block design. Pre-emergence applications were made to the soil surface using a common hand shaker method on an area basis. Overhead irrigation was maintained throughout the trial. Weed control of each species in the pre-emergence study was assessed at 2, 3, 4 and 5 weeks after application. Control was determined visually by comparing treated and untreated flats and scored on a 0 to 100 percent scale where 0 corresponds to no control and 100 corresponds to complete kill."}, "white clover (TRFRE) [2]": {"tested_on": "white clover (TRFRE)", "assay": "Granule carrier comparison, pre-emergence greenhouse study", "format": "in vivo, Trifolium repens L.", "settings": "pre-emergent greenhouse", "protocol": "as §3, §4"}, "[3]": {"tested_on": "pennywort (dollarweed) (HYDSS)", "assay": "Postemergent granule herbicides, turfgrass field studies", "format": "in vivo, Hydrocotyle spp", "settings": "Table III, 1 site", "protocol": "as §1, with “Field” for “Field and greenhouse studies were conducted to determine if there may be any synergistic response when penoxsulam is combined with other herbicides for post emergence broadleaf or sedge control. Field”"}, "white clover (TRFRE) [4]": {"tested_on": "white clover (TRFRE)", "assay": "Postemergent granule herbicides, turfgrass field studies", "format": "in vivo, Trifolium repens L.", "protocol": "as §1, with “Field” for “Field and greenhouse studies were conducted to determine if there may be any synergistic response when penoxsulam is combined with other herbicides for post emergence broadleaf or sedge control. Field”"}, "[5]": {"settings": "carrier 28-4-12, particle size 0.75 mm, 5.6 gai/Ha"}, "[6]": {"settings": "carrier 28-4-12, particle size 0.75 mm, 11.2 gai/Ha"}, "[7]": {"settings": "carrier 28-4-12, particle size 0.75 mm, 22.4 gai/Ha"}, "[8]": {"settings": "carrier 46-0-0, particle size 0.75 mm, 5.6 gai/Ha"}, "[9]": {"settings": "carrier 46-0-0, particle size 0.75 mm, 11.2 gai/Ha"}, "[10]": {"settings": "carrier 46-0-0, particle size 0.75 mm, 22.4 gai/Ha"}}}
{"smiles": "COc1cnc(OC)n2nc(NS(=O)(=O)c3c(OCC(F)F)cccc3C(F)(F)F)nc12", "note": "[Penoxsulam, 2-(2,2-difluoroethoxy)-N-(5,8-dimethoxy[1,2,4]triazolo[1,5-c]-pyrimidin-2-yl)-6-(trifluoromethyl)benzenesulfonamide]", "values": [{"measurement": "% Control Component A", "setting": "[1]; 22.4 gai/Ha on 30-3-4 granule fertilizer", "value": 37, "unit": "%"}, {"measurement": "% Control Component A", "setting": "[1]; 44.9 gai/Ha on 30-3-4 granule fertilizer", "value": 59, "unit": "%"}, {"measurement": "Pre-emergent Percent Mean Control", "setting": "common mallow (MALNE); 8.8 gai/Ha", "value": 60, "unit": "%"}, {"measurement": "Pre-emergent Percent Mean Control", "setting": "common mallow (MALNE); 17.5 gai/Ha", "value": 92, "unit": "%"}, {"measurement": "Pre-emergent Percent Mean Control", "setting": "common mallow (MALNE); 35 gai/Ha", "value": 95, "unit": "%"}, {"measurement": "Pre-emergent Percent Mean Control", "setting": "common mallow (MALNE); 70 gai/Ha", "value": 98, "unit": "%"}, {"measurement": "Pre-emergent Percent Mean Control", "setting": "common groundsel (SENVU); 8.8 gai/Ha", "value": 95, "unit": "%"}, {"measurement": "Pre-emergent Percent Mean Control", "setting": "common groundsel (SENVU); 17.5 gai/Ha", "value": 100, "unit": "%"}, {"measurement": "Pre-emergent Percent Mean Control", "setting": "common groundsel (SENVU); 35 gai/Ha", "value": 100, "unit": "%"}, {"measurement": "Pre-emergent Percent Mean Control", "setting": "common groundsel (SENVU); 70 gai/Ha", "value": 100, "unit": "%"}, {"measurement": "Percent Weed Control 35 DAA", "setting": "yellow nutsedge (CYPES); [5]", "value": 60, "unit": "%"}, {"measurement": "Percent Weed Control 35 DAA", "setting": "yellow nutsedge (CYPES); [6]", "value": 70, "unit": "%"}, {"measurement": "Percent Weed Control 35 DAA", "setting": "yellow nutsedge (CYPES); [7]", "value": 89, "unit": "%"}, {"measurement": "Percent Weed Control 35 DAA", "setting": "yellow nutsedge (CYPES); [8]", "value": 37, "unit": "%"}, {"measurement": "Percent Weed Control 35 DAA", "setting": "yellow nutsedge (CYPES); [9]", "value": 57, "unit": "%"}, {"measurement": "Percent Weed Control 35 DAA", "setting": "yellow nutsedge (CYPES); [10]", "value": 79, "unit": "%"}, {"measurement": "Percent Weed Control 35 DAA", "setting": "white clover (TRFRE) [2]; [5]", "value": 80, "unit": "%"}, {"measurement": "Percent Weed Control 35 DAA", "setting": "white clover (TRFRE) [2]; [6]", "value": 98, "unit": "%"}, {"measurement": "Percent Weed Control 35 DAA", "setting": "white clover (TRFRE) [2]; [7]", "value": 99, "unit": "%"}, {"measurement": "Percent Weed Control 35 DAA", "setting": "white clover (TRFRE) [2]; [8]", "value": 55, "unit": "%"}, {"measurement": "Percent Weed Control 35 DAA", "setting": "white clover (TRFRE) [2]; [9]", "value": 75, "unit": "%"}, {"measurement": "Percent Weed Control 35 DAA", "setting": "white clover (TRFRE) [2]; [10]", "value": 98, "unit": "%"}, {"measurement": "Mean Percent Weed Control", "setting": "[3]; 4 Weeks After Treatment, 22.4 gai/Ha", "value": 50, "unit": "%"}, {"measurement": "Mean Percent Weed Control", "setting": "[3]; 4 Weeks After Treatment, 44.9 gai/Ha", "value": 97, "unit": "%"}, {"measurement": "Mean Percent Weed Control", "setting": "[3]; 4 Weeks After Treatment, 67.3 gai/Ha", "value": 98, "unit": "%"}, {"measurement": "Mean Percent Weed Control", "setting": "[3]; 4 Weeks After Treatment, 100 gai/Ha", "value": 100, "unit": "%"}, {"measurement": "Mean Percent Weed Control", "setting": "[3]; 8 Weeks After Treatment, 22.4 gai/Ha", "value": 40, "unit": "%"}, {"measurement": "Mean Percent Weed Control", "setting": "[3]; 8 Weeks After Treatment, 44.9 gai/Ha", "value": 93, "unit": "%"}, {"measurement": "Mean Percent Weed Control", "setting": "[3]; 8 Weeks After Treatment, 67.3 gai/Ha", "value": 84, "unit": "%"}, {"measurement": "Mean Percent Weed Control", "setting": "[3]; 8 Weeks After Treatment, 100 gai/Ha", "value": 97, "unit": "%"}, {"measurement": "Mean Percent Weed Control", "setting": "white clover (TRFRE) [4]; Table I, 4 Weeks After Treatment, 8 sites, Penoxsulam 140 gai/Ha, Scotts Plus 2 1682+841 gae/Ha, Trimec 1121+516+112 gae/Ha", "value": 93, "unit": "%"}, {"measurement": "Mean Percent Weed Control", "setting": "white clover (TRFRE) [4]; Table I, 8 Weeks After Treatment, 7 sites, Penoxsulam 140 gai/Ha, Scotts Plus 2 1682+841 gae/Ha, Trimec 1121+516+112 gae/Ha", "value": 94, "unit": "%"}, {"measurement": "Mean Percent Weed Control", "setting": "white clover (TRFRE) [4]; Table III, 4 Weeks After Treatment, 22.4 gai/Ha, 8 sites", "value": 85, "unit": "%"}, {"measurement": "Mean Percent Weed Control", "setting": "white clover (TRFRE) [4]; Table III, 4 Weeks After Treatment, 44.9 gai/Ha, 8 sites", "value": 94, "unit": "%"}, {"measurement": "Mean Percent Weed Control", "setting": "white clover (TRFRE) [4]; Table III, 4 Weeks After Treatment, 67.3 gai/Ha, 8 sites", "value": 96, "unit": "%"}, {"measurement": "Mean Percent Weed Control", "setting": "white clover (TRFRE) [4]; Table III, 4 Weeks After Treatment, 100 gai/Ha, 8 sites", "value": 96, "unit": "%"}, {"measurement": "Mean Percent Weed Control", "setting": "white clover (TRFRE) [4]; Table III, 8 Weeks After Treatment, 22.4 gai/Ha, 8 sites", "value": 74, "unit": "%"}, {"measurement": "Mean Percent Weed Control", "setting": "white clover (TRFRE) [4]; Table III, 8 Weeks After Treatment, 44.9 gai/Ha, 8 sites", "value": 88, "unit": "%"}, {"measurement": "Mean Percent Weed Control", "setting": "white clover (TRFRE) [4]; Table III, 8 Weeks After Treatment, 67.3 gai/Ha, 8 sites", "value": 91, "unit": "%"}, {"measurement": "Mean Percent Weed Control", "setting": "white clover (TRFRE) [4]; Table III, 8 Weeks After Treatment, 100 gai/Ha, 8 sites", "value": 97, "unit": "%"}]}
